Experimental data taken from PubChem BioAssay AID488877 (The Scripps Research Institute Molecular Screening Center, 2010).
The source made the active and inactive calls. The rule behind the calls is not given here.

Test system: Vero cells SARS-CoV infected, viability, ATP luminescence
Assay: PubChem AID 488877

CC(C)(C)NC(=O)C(c1cccnc1)N(C(=O)c1ccco1)c1ccc(C(C)(C)C)cc1 (stereo unspecified)
EC50: > 10 µM (inactive)
